For the assay, the target named is T1, human AMPK α2β2γ3 (Homo sapiens, UniProt O43741+P54646+Q9UGI9).
T1 construct: expressed in transfected cells; host or cells: HEK293AD cells, MaxCyte bulk electroporation
As to the kind of experiment: Primary cellular assay: γ3 associated phospho-Thr172 AMPK detection (custom pAMPK Surefire AlphaLISA) in α2β2γ3 bulk transiently transfected HEK293 cells. Particulars: activation of human AMPK α2β2γ3 (γ3 pThr172 AMPK signal) in transiently transfected HEK293 cells, 20 minutes compound incubation; for Emax: 20 min, geometric mean of the asymptotic max, read-out: Assay GMean Asy. Max (%); for EC50: geometric mean EC50, read-out: Assay GMean EC50. In kind it is cell-based. The procedure, abridged: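 Transiently co-transfected (α2/β2/γ3 plasmids, electroporation) HEK293AD cells, plated 2 days in low-glucose DMEM+10% FBS, treated 20 min with compounds (11-point half-log dilutions). Lysates read by modified AlphaLISA capturing γ3 with pThr172 antibody detection. % effect relative to 30 μM HPE and DMSO; EC50 and Emax from curve fit.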
For orientation: Alpha assays give light when donor and acceptor beads are brought close together.

As a reminder, the EC50 is the midpoint of the concentration-response curve.

T1 sequence (P54646 whole entry): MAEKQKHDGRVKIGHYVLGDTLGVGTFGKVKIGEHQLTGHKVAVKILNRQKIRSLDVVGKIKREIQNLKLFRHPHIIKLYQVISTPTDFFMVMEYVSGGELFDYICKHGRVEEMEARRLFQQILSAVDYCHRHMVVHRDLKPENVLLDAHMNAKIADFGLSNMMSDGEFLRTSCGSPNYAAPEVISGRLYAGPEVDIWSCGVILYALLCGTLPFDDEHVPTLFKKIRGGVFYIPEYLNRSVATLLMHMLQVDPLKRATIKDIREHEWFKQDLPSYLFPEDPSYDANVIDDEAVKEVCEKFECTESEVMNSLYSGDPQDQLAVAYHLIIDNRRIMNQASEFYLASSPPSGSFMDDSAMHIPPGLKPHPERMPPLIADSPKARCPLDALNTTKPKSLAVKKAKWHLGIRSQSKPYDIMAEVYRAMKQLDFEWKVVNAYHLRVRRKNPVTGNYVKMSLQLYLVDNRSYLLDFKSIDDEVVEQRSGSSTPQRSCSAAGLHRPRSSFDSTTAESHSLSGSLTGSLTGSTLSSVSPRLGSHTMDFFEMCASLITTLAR
T1 sequence (O43741 whole entry): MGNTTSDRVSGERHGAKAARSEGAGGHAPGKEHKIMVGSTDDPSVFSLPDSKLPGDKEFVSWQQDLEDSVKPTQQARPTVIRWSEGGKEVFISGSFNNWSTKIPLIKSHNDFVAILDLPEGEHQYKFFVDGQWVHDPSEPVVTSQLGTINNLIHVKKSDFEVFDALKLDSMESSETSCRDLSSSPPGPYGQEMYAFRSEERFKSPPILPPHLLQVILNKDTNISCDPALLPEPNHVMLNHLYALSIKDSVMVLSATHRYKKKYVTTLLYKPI
T1 sequence (Q9UGI9 whole entry): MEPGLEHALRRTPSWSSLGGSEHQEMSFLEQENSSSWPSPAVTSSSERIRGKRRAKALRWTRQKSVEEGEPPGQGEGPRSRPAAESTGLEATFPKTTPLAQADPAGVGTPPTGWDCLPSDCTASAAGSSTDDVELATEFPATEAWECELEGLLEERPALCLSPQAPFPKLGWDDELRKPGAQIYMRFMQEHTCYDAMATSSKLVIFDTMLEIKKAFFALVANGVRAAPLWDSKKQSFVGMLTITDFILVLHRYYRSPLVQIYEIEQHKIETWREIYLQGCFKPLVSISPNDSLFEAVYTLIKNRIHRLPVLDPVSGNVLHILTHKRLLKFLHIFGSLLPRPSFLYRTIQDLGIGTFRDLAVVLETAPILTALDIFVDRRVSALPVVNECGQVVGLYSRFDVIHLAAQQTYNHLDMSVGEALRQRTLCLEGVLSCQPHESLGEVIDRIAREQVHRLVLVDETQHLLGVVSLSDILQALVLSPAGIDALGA

As to `CN(C(=O)CN1CC(Nc2ccc3c(c2F)C(C)(c2cccc(Cl)c2F)CN(c2nn(C)cc2F)C3=O)C1)C1CC1` (single isomer, unassigned) [Example 34, 2-(3-{[4-(3-Chloro-2-fluorophenyl)-5-fluoro-2-(4-fluoro-1-methyl-1H-pyrazol-3-yl)-4-methyl-1-oxo-1,2,3,4-tetrahydroisoquinolin-6-yl]amino}azetidin-1-yl)-N-cyclopropyl-N-methylacetamide], the Emax is 208% and the EC50 was 31.7 nM.
For `CCN(C)C(=O)CN1CC(Nc2ncc3c(c2F)[C@@](C)(c2cccc(Cl)c2F)CN(c2nn(C)cc2F)C3=O)C1` [compound 66, 2-(3-{[(5R)-5-(3-chloro-2-fluorophenyl)-4-fluoro-7-(4-fluoro-1-methyl-1H-pyrazol-3-yl)-5-methyl-8-oxo-5,6,7,8-tetrahydro-2,7-naphthyridin-3-yl]amino}azetidin-1-yl)-N-ethyl-N-methylacetamide] the same measures were 88.8% and 29.8 nM.
For `CC1(c2cccc(Cl)c2F)CN(c2ncccc2F)C(=O)c2cnc(NC3CN(C(=O)C4(O)CC4)C3)nc21` (single isomer, unassigned) [Example 27, 8-(3-Chloro-2-fluorophenyl)-6-(3-fluoropyridin-2-yl)-2-{[1-(1-hydroxycyclopropane-1-carbonyl)azetidin-3-yl]amino}-8-methyl-7,8-dihydropyrido[4,3-d]pyrimidin-5(6H)-one] the same measures were 174% and 177 nM.
For `C[C@]1(c2cccc(Cl)c2F)CN(c2cc(OC(F)F)ccn2)C(=O)c2cnc(NC3CN(C(=O)[C@@H]4C[C@@H]4F)C3)c(F)c21` [compound 55, (4R)-4-(3-chloro-2-fluorophenyl)-2-[4-(difluoromethoxy)pyridin-2-yl]-5-fluoro-6-({1-[(1S,2S)-2-fluorocyclopropane-1-carbonyl]azetidin-3-yl}amino)-4-methyl-3,4-dihydro-2,7-naphthyridin-1(2H)-one], in that order: 30.9% and 24 nM.
For the molecule `Cn1cc(F)c(N2C[C@](C)(c3cccc(Cl)c3F)c3c(cnc(NC4CN(C(=O)[C@@H]5C[C@@H]5F)C4)c3F)C2=O)n1` [Example 2, (4R)-4-(3-chloro-2-fluorophenyl)-5-fluoro-6-({1-[(1S,2S)-2-fluorocyclopropane-1-carbonyl]azetidin-3-yl}amino)-2-(4-fluoro-1-methyl-1H-pyrazol-3-yl)-4-methyl-3,4-dihydro-2,7-naphthyridin-1(2H)-one], the Emax is 81.7% and the EC50 was found to be 29.9 nM.
On to `Cn1cc(F)c(N2CC(C)(c3cccc(Cl)c3F)c3c(cnc(N[C@@H]4CCN(C(=O)N5C[C@@H]6C[C@H]5CO6)C4)c3F)C2=O)n1` (single isomer, unassigned) [Example 25], for which the Emax turned out to be 52.2% and the EC50 was determined as 160 nM.
For `C[C@]1(c2cccc(Cl)c2F)CN(c2ncccc2F)C(=O)c2cnc(NC3CN(C(=O)N4CCN5CC(F)(F)C[C@@H]5C4)C3)c(F)c21` [compound 100, (4R)-4-(3-chloro-2-fluorophenyl)-6-({1-[(8aR)-7,7-difluorohexahydropyrrolo[1,2-a]pyrazine-2(1H)-carbonyl]azetidin-3-yl}amino)-5-fluoro-2-(3-fluoropyridin-2-yl)-4-methyl-3,4-dihydro-2,7-naphthyridin-1(2H)-one] the same measures were 22.8% and 11.6 nM.
For `COC[C@H](C)NC(=O)N1CC(Nc2ncc3c(n2)C(C)(c2cccc(Cl)c2F)CN(c2ncccc2F)C3=O)C1` (single isomer, unassigned) [compound 85], in that order: 141% and 162 nM.
For `C[C@]1(c2cccc(Cl)c2F)CN(c2ccc(CO)cn2)C(=O)c2cnc(NC3CN(C(=O)c4ncccn4)C3)c(F)c21` [compound 59, (4R)-4-(3-chloro-2-fluorophenyl)-5-fluoro-2-[5-(hydroxymethyl)pyridin-2-yl]-4-methyl-6-{[1-(pyrimidine-2-carbonyl)azetidin-3-yl]amino}-3,4-dihydro-2,7-naphthyridin-1(2H)-one], in that order: 62.4% and 157 nM.

(Values after US12637461B2, “Compounds for the activation of AMPK” (PFIZER INC., priority 2022, dated 2026).)
